BindingDB's records for patent US10913744 (Dana-Farber Cancer Institute, 2021)

What was measured:
[1] = molecular target: T1, Leucine-rich repeat serine/threonine-protein kinase 2 [1326-2527,G2019S] (Homo sapiens, UniProt Q5S007, G2019S); test: Enzyme Assay
T1 construct: 1326-2527
Method: (§1) Samples were washed extensively and the incorporation of [γ-32P]ATP into Nictide was quantified by Cerenkov counting. IC50 values were calculated with GraphPad Prism using non-linear regression analysis.

[2] = molecular target: T2, Leucine-rich repeat serine/threonine-protein kinase 2 [1326-2527] (Homo sapiens, UniProt Q5S007); test: Enzyme Assay
T2 construct: 1326-2527
T2 sequence (Q5S007 whole entry): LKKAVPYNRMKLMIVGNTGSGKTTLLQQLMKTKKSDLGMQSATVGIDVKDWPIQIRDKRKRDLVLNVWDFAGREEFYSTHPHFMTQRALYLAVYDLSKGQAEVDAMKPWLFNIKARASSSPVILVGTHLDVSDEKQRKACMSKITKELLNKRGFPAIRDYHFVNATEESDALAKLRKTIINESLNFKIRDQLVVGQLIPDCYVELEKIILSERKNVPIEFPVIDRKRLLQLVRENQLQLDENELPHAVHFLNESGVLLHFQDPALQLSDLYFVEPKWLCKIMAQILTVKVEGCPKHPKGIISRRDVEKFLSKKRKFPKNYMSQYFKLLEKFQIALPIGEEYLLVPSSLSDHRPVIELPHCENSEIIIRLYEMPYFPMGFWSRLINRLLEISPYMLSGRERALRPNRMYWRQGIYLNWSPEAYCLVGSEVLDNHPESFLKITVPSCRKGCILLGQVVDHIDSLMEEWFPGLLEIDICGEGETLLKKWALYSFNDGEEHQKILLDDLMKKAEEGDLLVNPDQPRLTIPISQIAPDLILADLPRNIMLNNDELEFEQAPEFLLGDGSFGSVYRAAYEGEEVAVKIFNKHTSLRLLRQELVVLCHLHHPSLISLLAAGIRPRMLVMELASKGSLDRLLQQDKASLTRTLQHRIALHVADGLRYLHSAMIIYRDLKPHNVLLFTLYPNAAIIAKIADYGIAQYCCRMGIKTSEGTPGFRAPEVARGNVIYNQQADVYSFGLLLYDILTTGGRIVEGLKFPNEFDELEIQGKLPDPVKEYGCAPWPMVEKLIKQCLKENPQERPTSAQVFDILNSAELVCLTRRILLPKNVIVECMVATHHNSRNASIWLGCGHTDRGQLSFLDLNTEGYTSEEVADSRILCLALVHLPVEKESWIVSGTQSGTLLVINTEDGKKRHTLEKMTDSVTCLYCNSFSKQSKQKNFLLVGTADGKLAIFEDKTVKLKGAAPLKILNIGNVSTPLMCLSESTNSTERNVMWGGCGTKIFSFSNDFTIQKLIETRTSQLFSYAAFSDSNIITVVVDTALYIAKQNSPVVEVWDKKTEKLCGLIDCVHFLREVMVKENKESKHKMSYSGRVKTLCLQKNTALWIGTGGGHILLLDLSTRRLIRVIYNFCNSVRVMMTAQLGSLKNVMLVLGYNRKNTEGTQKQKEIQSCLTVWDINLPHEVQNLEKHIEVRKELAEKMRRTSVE
Method: as §1

T1 sequence (Q5S007 1326-2527 G2019S): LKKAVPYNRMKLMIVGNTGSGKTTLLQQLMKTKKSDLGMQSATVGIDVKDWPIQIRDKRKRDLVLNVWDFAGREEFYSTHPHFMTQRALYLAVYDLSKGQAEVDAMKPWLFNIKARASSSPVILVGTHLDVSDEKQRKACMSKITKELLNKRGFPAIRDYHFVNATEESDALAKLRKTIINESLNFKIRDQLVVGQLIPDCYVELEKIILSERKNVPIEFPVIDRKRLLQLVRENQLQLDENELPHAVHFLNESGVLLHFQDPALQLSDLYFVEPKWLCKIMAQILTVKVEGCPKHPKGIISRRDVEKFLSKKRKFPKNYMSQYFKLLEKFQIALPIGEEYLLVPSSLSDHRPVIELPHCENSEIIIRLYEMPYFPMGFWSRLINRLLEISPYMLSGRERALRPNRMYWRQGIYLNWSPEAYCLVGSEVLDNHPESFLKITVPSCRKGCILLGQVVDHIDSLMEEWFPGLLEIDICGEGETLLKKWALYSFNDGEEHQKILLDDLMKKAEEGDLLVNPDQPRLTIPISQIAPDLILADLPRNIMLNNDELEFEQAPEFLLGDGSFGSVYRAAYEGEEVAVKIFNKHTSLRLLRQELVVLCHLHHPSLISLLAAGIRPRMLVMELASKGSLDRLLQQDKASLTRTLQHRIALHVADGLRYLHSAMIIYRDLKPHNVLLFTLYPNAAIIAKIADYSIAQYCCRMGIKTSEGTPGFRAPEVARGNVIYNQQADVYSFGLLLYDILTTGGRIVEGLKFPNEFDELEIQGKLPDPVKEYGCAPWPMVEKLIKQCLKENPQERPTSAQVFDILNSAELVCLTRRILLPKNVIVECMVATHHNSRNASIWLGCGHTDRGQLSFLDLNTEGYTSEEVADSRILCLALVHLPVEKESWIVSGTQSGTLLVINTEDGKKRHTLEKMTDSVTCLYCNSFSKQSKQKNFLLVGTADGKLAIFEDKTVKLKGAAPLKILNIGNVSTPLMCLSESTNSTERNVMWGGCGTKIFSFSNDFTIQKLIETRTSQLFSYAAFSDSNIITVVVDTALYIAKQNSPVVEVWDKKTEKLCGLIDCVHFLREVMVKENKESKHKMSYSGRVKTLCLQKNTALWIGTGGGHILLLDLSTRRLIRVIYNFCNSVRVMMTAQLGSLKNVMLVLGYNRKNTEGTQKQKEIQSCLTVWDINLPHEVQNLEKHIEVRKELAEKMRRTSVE

For `CNc1nc(Nc2ccc(C(=O)N3CCOCC3)cc2OC)nc2[nH]ccc12` [US10913744, Compound 8], the IC50 [1] was 5.1 nM and the IC50 [2] was 2.6 nM.
